Measured values reported in patent publication US20110230471A1, “BENZONAPHTYRIDINE COMPOUNDS AS INHIBITORS OF AUTOTAXIN” (MERCK PATENT GESELLSCHAFT MIT BESCHRANKTER HAFTUNG, priority 2008, published 2011).

Target: T1, recombinant autotaxin (Homo sapiens, UniProt Q13822)
T1 construct: made in house; host or cells: Hi5 insect cells (baculovirus)
Assay: Autotaxin test (enzyme test), Amplex Red
Format: biochemical
Conditions: Autotaxin inhibition (enzyme test), TABLE 2 (B compounds); substrate LPC 75 μM
Experimental: The autotaxin activity is measured indirectly using Amplex Red reagent. Amplex Red is measured here as fluorogenic indicator for the H2O2 formed. In detail, autotaxin converts the substrate lysophosphatidylcholine (LPC) into phosphocholine and lysophosphatidylic acid (LPA). After this reaction, the phosphocholine is reacted with alkaline phosphatase to give inorganic phosphate and choline. In the next step, choline is oxidised by choline oxidase to give betaine, with formation of H2O2. H2O2 reacts with Amplex Red reagent in the presence of peroxidase (horseradish peroxidase) in a 1:1 stoichiometry and forms the highly fluorescent resorufin. The fluorescence is measured in a reaction-dependent kinetic mode in order that fluorescent signals from possible other fluorescent substances which are not involved in the reaction can be corrected out.
1.5 μl of a standard solution or of the test substances (substances with the name A(n))in individual concentrations dissolved in 20 mM Hepes pH 7.2 with a maximum of 7.7% of DMSO are pre-incubated together with 10 μl (16 ng) of highly purified recombinant autotaxin in a black microtitre plate provided with 384 wells at 22° C. for 30 min. The reaction is then initiated by addition of 5 μl of L-α-lysophosphatidylcholine (LPC), where the final concentration of LPC is 75 μM. The mixture is incubated at 37° C. for 90 min. After the incubation, Amplex Red reagent, peroxidase (horseradish peroxidase) and choline oxidase is added, and the fluorescence is immediately measured at 612 nm with excitation of 485 nm in a “Tecan Ultra multimode” reader. The activity of autotaxin is calculated indirectly via detection of the H2O2 formed.
• Microtitre plate: PS microplate, 384 wells, small volume, black Corning, Cat#3677 • Protein: recombinant autotaxin (Baculovirale Hi5 Expression) • Substrate: L-α-lysophosphatidylcholine (chicken egg)); Avanti Polar Lipids # 830071 P • Standard: C14 LPA, Avanti Polar Lipids, Cat# 857120P • Detection reagent: Amplex Red reagent; Invitrogen # A12222; dissolved in 1.923 ml of DMSO peroxidase type VI-A (horseradish) from Sigma # P6782; dissolved in 7.45 ml of test buffer, choline oxidase; Sigma # C5896; dissolved in 2.47 ml of test buffer • Detection reagent mix: 1:100 dilution of Amplex Red reagent in test buffer • Test buffer: 200 mM Tris HCl, Merck, Cat # 1.08219, pH 7.9, 0.1% of BSA, lipid-free, Roche Cat#775835

Compound	IC50 [nM]
O=C(CN1CCc2nc3ccccc3c(C(=O)N3CCOCC3)c2C1)Nc1cc(Cl)ccc1OC(F)(F)F [Compound B5, N-(5-Chloro-2-trifluoromethoxyphenyl)-2-[10-(morpholine-4-carbonyl)-3,4-dihydro-1H-benzo[b][1,6]naphthyridin-2-yl]acetamide]	> 1000
COc1ccc(Cl)cc1NCCN1CCc2nc3ccccc3c(C(=O)N3CCN(CCO)CC3)c2C1 [Compound B14, {2-[2-(5-Chloro-2-methoxyphenylamino)ethyl]-1,2,3,4-tetrahydrobenzo-[b][1,6]naphthyridin-10-yl}-[4-(2-hydroxyethyl)piperazin-1-yl]methanone]	> 1000
CSc1ccc(Cl)cc1NC(=O)CN1CCc2nc3ccccc3c(C(=O)N3CCN(CCO)CC3)c2C1 [Compound B17, N-(5-Chloro-2-methylsulfanylphenyl)-2-{10-[4-(2-hydroxyethyl)piperazine-1-carbonyl]-3,4-dihydro-1H-benzo[b][1,6]naphthyridin-2-yl}acetamide]	> 1000
COc1ccc(Cl)cc1-c1nc(CN2CCc3nc4ccccc4c(C(=O)NC4CCN(C)CC4)c3C2)no1 [Compound B20, N-(1-Methylpiperidin-4-yl)-2-[5-(5-chloro-2-methoxyphenyl)-1,2,4-oxadiazol-3-ylmethyl]-1,2,3,4-tetrahydrobenzo[b][1,6]naphthyridine-10-carboxamide]	> 1000
O=C(CN1CCc2nc3ccccc3c(C(=O)N3CCN(CCO)CC3)c2C1)Nc1cccc(-c2ccccc2)c1 [Compound B21, N-Biphenyl-3-yl-2-{10-[4-(2-hydroxyethyl)piperazine-1-carbonyl]-3,4-dihydro-1H-benzo[b][1,6]naphthyridin-2-yl}acetamide]	> 1000
COc1ccc(Cl)cc1NC(=O)CN1CCc2nc3ccccc3c(C(=O)Nc3ccc4[nH]nnc4c3)c2C1 [Compound B22, N-(1H-Benzotriazol-5-yl)-2-[(5-chloro-2-methoxyphenylcarbamoyl)methyl]-1,2,3,4-tetrahydrobenzo[b][1,6]naphthyridine-10-carboxamide]	100 to 1000
COc1c(F)cc(Br)cc1NC(=O)CN1CCc2nc3ccccc3c(C(=O)N3CCOCC3)c2C1 [Compound B24, N-(5-Bromo-3-fluoro-2-methoxyphenyl)-2-[10-(morpholine-4-carbonyl)-3,4-dihydro-1H-benzo[b][1,6]naphthyridin-2-yl]acetamide]	100 to 1000
COc1ccc(Cl)cc1-c1nnc(CN2CCc3nc4ccccc4c(C(=O)NCCN(C)C)c3C2)o1 [Compound B29, N-(2-Dimethylaminoethyl)-2-[5-(5-chloro-2-methoxyphenyl)-1,3,4-oxadiazol-2-ylmethyl]-1,2,3,4-tetrahydrobenzo[b][1,6]naphthyridine-10-carboxamide]	> 1000
COc1ccc(Cl)cc1-c1nnc(CN2CCc3nc4ccccc4c(C(=O)NCC[N+](C)(C)Cc4nnc(-c5cc(Cl)ccc5OC)o4)c3C2)o1 [Compound B30, [5-(5-Chloro-2-methoxyphenyl)-1,3,4-oxadiazol-2-ylmethyl]-[2-({2-[5-(5-chloro-2-methoxyphenyl)-1,3,4-oxadiazol-2-ylmethyl]-1,2,3,4-tetrahydrobenzo[b][1,6]naphthyridine-10-carbonyl}amino)ethyl]dimethylammonium]	> 1000
COCCNC(=O)c1c2c(nc3ccccc13)CCN(Cc1nnc(-c3cc(Cl)ccc3OC)o1)C2 [Compound B31, N-(2-Methoxyethyl)-2-[5-(5-chloro-2-methoxyphenyl)-1,3,4-oxadiazol-2-yl-methyl]-1,2,3,4-tetrahydrobenzo[b][1,6]naphthyridine-10-carboxamide]	> 1000
CCNC(=O)c1c2c(nc3ccccc13)CCN(Cc1nnc(-c3cc(Cl)ccc3OC)o1)C2 [Compound B32, N-Ethyl-2-[5-(5-chloro-2-methoxyphenyl)-1,3,4-oxadiazol-2-ylmethyl]-1,2,3,4-tetrahydrobenzo[b][1,6]naphthyridine-10-carboxamide]	> 1000
